Patent publication US8802597B2, “Herbicidal pyrimidines” (E I du Pont de Nemours and Company, priority 2003, dated 2014)

Legend:
Type in all cases: in vivo
[1] = tested on: barnyardgrass (Echinochloa crus-galli); test: Test A pre/postemergence
Method in brief: (§1)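 Greenhouse herbicide test with preemergence directed soil spray and postemergence foliar spray at the 1- to 2-leaf stage; visual control rating 0–100 versus untreated at ~10 days.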

[2] = tested on: crabgrass (Digitaria sanguinalis); test: Test A pre/postemergence
Method in brief: as §1

[3] = tested on: giant foxtail (Setaria faberi); test: Test A pre/postemergence
Method in brief: as §1

[4] = tested on: morningglory (Ipomoea spp.); test: Test A pre/postemergence
Method in brief: as §1

[5] = tested on: redroot pigweed (Amaranthus retroflexus); test: Test A pre/postemergence
Method in brief: as §1

[6] = tested on: velvetleaf (Abutilon theophrasti); test: Test A pre/postemergence
Method in brief: as §1

[7] = tested on: barnyardgrass (Echinochloa crus-galli); test: Test B flooded paddy test; settings: Flood, scale 0 to 100
Protocol: (§2) At the same time, plants selected from these crop and weed species and also blackgrass (Alopecurus myosuroides) and wild oat (Avena fatua) were treated with postemergence applications of test chemicals formulated in the same manner. Plants ranged in height from 2 to 18 cm (1- to 4-leaf stage) for postemergence treatments. Plant species in the flooded paddy test consisted of rice (Oryza sativa), umbrella sedge (Cyperus difformis), duck salad (Heteranthera limosa) and barnyardgrass (Echinochloa crus-galli) grown to the 2-leaf stage for testing. Treated plants and controls were maintained in a greenhouse for 13 to 15 days, after which time all species were compared to controls and visually evaluated. Plant response ratings, summarized in Table B, are based on a scale of 0 to 100 where 0 is no effect and 100 is complete control. A dash (-) response means no test result.

[8] = tested on: duck salad (Heteranthera limosa); test: Test B flooded paddy test; settings: Flood, scale 0 to 100
Protocol: as §2

rice (Oryza sativa) = test: Test B flooded paddy test; settings: Flood, scale 0 to 100
Protocol: as §2

[9] = tested on: umbrella sedge (Cyperus difformis); test: Test B flooded paddy test; settings: Flood, scale 0 to 100
Protocol: as §2

[10] = tested on: barnyardgrass (Echinochloa crus-galli); test: Test E flooded paddy water application; settings: Flood, 21 days, scale 0 to 100 (0 no effect, 100 complete control)
Method in brief: (§3)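 Response scored visually on a 0–100 scale (100 = complete control) at 21 days against untreated pots. Treatment was into paddy water 3 cm deep over silt loam, with plants at the 2.0–2.5-leaf stage, grown under 16-h light at 29.5/26.7 °C day/night.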

[11] = tested on: bearded (brdd.) sprangletop (Leptochloa fusca ssp. fascicularis); test: Test E flooded paddy water application; settings: Flood, 21 days, scale 0 to 100 (0 no effect, 100 complete control)
Method in brief: as §3

[12] = tested on: ducksalad (Heteranthera limosa); test: Test E flooded paddy water application; settings: Flood, 21 days, scale 0 to 100 (0 no effect, 100 complete control)
Method in brief: as §3

[13] = tested on: early watergrass (Echinochloa oryzoides); test: Test E flooded paddy water application; settings: Flood, 21 days, scale 0 to 100 (0 no effect, 100 complete control)
Method in brief: as §3

[14] = tested on: junglerice (Echinochloa colona); test: Test E flooded paddy water application; settings: Flood, 21 days, scale 0 to 100 (0 no effect, 100 complete control)
Method in brief: as §3

[15] = tested on: late watergrass (Echinochloa oryzicola); test: Test E flooded paddy water application; settings: Flood, 21 days, scale 0 to 100 (0 no effect, 100 complete control)
Method in brief: as §3

[16] = tested on: purple redstem (Ammannia coccinea); test: Test E flooded paddy water application; settings: Flood, 21 days, scale 0 to 100 (0 no effect, 100 complete control)
Method in brief: as §3

[17] = tested on: rice flatsedge (Cyperus iria); test: Test E flooded paddy water application; settings: Flood, 21 days, scale 0 to 100 (0 no effect, 100 complete control)
Method in brief: as §3

[18] = tested on: smallflower umbrella sedge (Cyperus difformis); test: Test E flooded paddy water application; settings: Flood, 21 days, scale 0 to 100 (0 no effect, 100 complete control)
Method in brief: as §3

[19] = tested on: transplanted rice seedlings (Oryza sativa cv. ‘Japonica-M202’); test: Test E flooded paddy water application; settings: Flood, 21 days, scale 0 to 100 (0 no effect, 100 complete control)
Method in brief: as §3

[20] = tested on: water seeded rice seedlings (Oryza sativa cv. ‘Japonica-M202’); test: Test E flooded paddy water application; settings: Flood, 21 days, scale 0 to 100 (0 no effect, 100 complete control)
Method in brief: as §3

[21] = Postemergence, 125 g ai/ha, 0 to 100 scale (0 no effect, 100 complete control)
[22] = Postemergence, 500 g ai/ha, 0 to 100 scale (0 no effect, 100 complete control)
[23] = Preemergence, 125 g ai/ha, 0 to 100 scale where 0 is no effect and 100 is complete control, approximately ten days
[24] = Preemergence, 500 g ai/ha, 0 to 100 scale where 0 is no effect and 100 is complete control, approximately ten days

In the case of `Nc1nc(C2CC2)nc(C(=O)OCc2ccc(Cl)cc2)c1Cl` [Compound 80], the “Plant response rating, Barnyardgrass” value [1, 21] was 55, the “Plant response rating, Barnyardgrass” value [1, 22] was 90 and the “Plant response rating, Barnyardgrass” value [1, 23] was 10. For the same molecule, the “Plant response rating, Barnyardgrass” value [1, 24] was 80, the “Plant response rating, Crabgrass” value [2, 21] was 30 and the “Plant response rating, Crabgrass” value [2, 22] was 70. For the same molecule, the “Plant response rating, Crabgrass” value [2, 23] was 45, the “Plant response rating, Crabgrass” value [2, 24] was 85 and the “Plant response rating, Foxtail, Giant” value [3, 21] was 70. For the same molecule, the “Plant response rating, Foxtail, Giant” value [3, 22] was 90, the “Plant response rating, Foxtail, Giant” value [3, 23] was 15 and the “Plant response rating, Foxtail, Giant” value [3, 24] was 70. The “Plant response rating, Morningglory” value [4, 21] was 90, the “Plant response rating, Morningglory” value [4, 22] was 95 and the “Plant response rating, Morningglory” value [4, 23] was 90. The “Plant response rating, Morningglory” value [4, 24] was 100, the “Plant response rating, Pigweed” value [5, 21] was 65 and the “Plant response rating, Pigweed” value [5, 22] was 95. For the same molecule, the “Plant response rating, Pigweed” value [5, 23] was 80, the “Plant response rating, Pigweed” value [5, 24] was 90 and the “Plant response rating, Velvetleaf” value [6, 21] was 65. For the same molecule, the “Plant response rating, Velvetleaf” value [6, 22] was 90, the “Plant response rating, Velvetleaf” value [6, 23] was 75 and the “Plant response rating, Velvetleaf” value [6, 24] was 90. For the same molecule, the “Plant response rating, Barnyardgrass” value ([7]; 125 g ai/ha) was 0, the “Plant response rating, Barnyardgrass” value ([7]; 500 g ai/ha) was 50 and the “Plant response rating, Ducksalad” value ([8]; 125 g ai/ha) was 50. For the same molecule, the “Plant response rating, Ducksalad” value ([8]; 500 g ai/ha) was 70, the “Plant response rating, Rice” value (rice (Oryza sativa); 125 g ai/ha) was 0 and the “Plant response rating, Rice” value (rice (Oryza sativa); 500 g ai/ha) was 50. The “Plant response rating, Sedge, Umbrella” value ([9]; 125 g ai/ha) was 20 and the “Plant response rating, Sedge, Umbrella” value ([9]; 500 g ai/ha) was 70.

With `Nc1nc(-c2ccc(Cl)cc2)nc(C(=O)OCc2ccccc2)c1Cl` [Compound 118] the “Plant response rating, Barnyardgrass” value [1, 21] was 0, the “Plant response rating, Barnyardgrass” value [1, 22] was 0 and the “Plant response rating, Barnyardgrass” value [1, 23] was 0. The “Plant response rating, Barnyardgrass” value [1, 24] was 10, the “Plant response rating, Crabgrass” value [2, 21] was 10 and the “Plant response rating, Crabgrass” value [2, 22] was 20. For the same molecule, the “Plant response rating, Crabgrass” value [2, 23] was 10, the “Plant response rating, Crabgrass” value [2, 24] was 25 and the “Plant response rating, Foxtail, Giant” value [3, 21] was 0. The “Plant response rating, Foxtail, Giant” value [3, 22] was 15, the “Plant response rating, Foxtail, Giant” value [3, 23] was 0 and the “Plant response rating, Foxtail, Giant” value [3, 24] was 15. For the same molecule, the “Plant response rating, Morningglory” value [4, 21] was 65, the “Plant response rating, Morningglory” value [4, 22] was 70 and the “Plant response rating, Morningglory” value [4, 23] was 0. The “Plant response rating, Morningglory” value [4, 24] was 0, the “Plant response rating, Pigweed” value [5, 21] was 60 and the “Plant response rating, Pigweed” value [5, 22] was 75. For the same molecule, the “Plant response rating, Pigweed” value [5, 23] was 10, the “Plant response rating, Pigweed” value [5, 24] was 55 and the “Plant response rating, Velvetleaf” value [6, 21] was 90. The “Plant response rating, Velvetleaf” value [6, 22] was 95, the “Plant response rating, Velvetleaf” value [6, 23] was 0 and the “Plant response rating, Velvetleaf” value [6, 24] was 15. For the same molecule, the “Barnyardgrass plant response rating” value ([10]; 32 g ai/ha) was 0, the “Barnyardgrass plant response rating” value ([10]; 64 g ai/ha) was 0 and the “Barnyardgrass plant response rating” value ([10]; 125 g ai/ha) was 0. The “Barnyardgrass plant response rating” value ([10]; 250 g ai/ha) was 0, the “Plant response rating, Barnyardgrass” value ([10]; 16 g ai/ha) was 0 and the “Sprangletop, Brdd. plant response rating” value ([11]; 32 g ai/ha) was 0. The “Sprangletop, Brdd. plant response rating” value ([11]; 64 g ai/ha) was 0, the “Sprangletop, Brdd. plant response rating” value ([11]; 125 g ai/ha) was 70 and the “Sprangletop, Brdd. plant response rating” value ([11]; 250 g ai/ha) was 85. For the same molecule, the “Plant response rating, Sprangletop, Brdd.” value ([11]; 16 g ai/ha) was 0, the “Ducksalad plant response rating” value ([12]; 32 g ai/ha) was 100 and the “Ducksalad plant response rating” value ([12]; 64 g ai/ha) was 100. The “Ducksalad plant response rating” value ([12]; 125 g ai/ha) was 100, the “Ducksalad plant response rating” value ([12]; 250 g ai/ha) was 100 and the “Plant response rating, Ducksalad” value ([12]; 16 g ai/ha) was 100. The “Watergrass, Early plant response rating” value ([13]; 32 g ai/ha) was 0, the “Watergrass, Early plant response rating” value ([13]; 64 g ai/ha) was 0 and the “Watergrass, Early plant response rating” value ([13]; 125 g ai/ha) was 0. For the same molecule, the “Watergrass, Early plant response rating” value ([13]; 250 g ai/ha) was 0, the “Plant response rating, Watergrass, Early” value ([13]; 16 g ai/ha) was 0 and the “Junglerice plant response rating” value ([14]; 32 g ai/ha) was 40. For the same molecule, the “Junglerice plant response rating” value ([14]; 64 g ai/ha) was 45, the “Junglerice plant response rating” value ([14]; 125 g ai/ha) was 65 and the “Junglerice plant response rating” value ([14]; 250 g ai/ha) was 65. For the same molecule, the “Plant response rating, Junglerice” value ([14]; 16 g ai/ha) was 0, the “Watergrass, Late plant response rating” value ([15]; 32 g ai/ha) was 0 and the “Watergrass, Late plant response rating” value ([15]; 64 g ai/ha) was 0. The “Watergrass, Late plant response rating” value ([15]; 125 g ai/ha) was 0, the “Watergrass, Late plant response rating” value ([15]; 250 g ai/ha) was 0 and the “Plant response rating, Watergrass, Late” value ([15]; 16 g ai/ha) was 0. The “Redstem plant response rating” value ([16]; 32 g ai/ha) was 20, the “Redstem plant response rating” value ([16]; 64 g ai/ha) was 30 and the “Redstem plant response rating” value ([16]; 125 g ai/ha) was 50. The “Redstem plant response rating” value ([16]; 250 g ai/ha) was 85, the “Plant response rating, Redstem” value ([16]; 16 g ai/ha) was 0 and the “Flatsedge, Rice plant response rating” value ([17]; 32 g ai/ha) was 95. For the same molecule, the “Flatsedge, Rice plant response rating” value ([17]; 64 g ai/ha) was 95, the “Flatsedge, Rice plant response rating” value ([17]; 125 g ai/ha) was 95 and the “Flatsedge, Rice plant response rating” value ([17]; 250 g ai/ha) was 100. The “Plant response rating, Flatsedge, Rice” value ([17]; 16 g ai/ha) was 85, the “Sedge, Umbrella plant response rating” value ([18]; 32 g ai/ha) was 95 and the “Sedge, Umbrella plant response rating” value ([18]; 64 g ai/ha) was 100. For the same molecule, the “Sedge, Umbrella plant response rating” value ([18]; 125 g ai/ha) was 100, the “Sedge, Umbrella plant response rating” value ([18]; 250 g ai/ha) was 100 and the “Plant response rating, Sedge, Umbrella” value ([18]; 16 g ai/ha) was 85. For the same molecule, the “Rice, Transplanted plant response rating” value ([19]; 32 g ai/ha) was 0, the “Rice, Transplanted plant response rating” value ([19]; 64 g ai/ha) was 0 and the “Rice, Transplanted plant response rating” value ([19]; 125 g ai/ha) was 0. For the same molecule, the “Rice, Transplanted plant response rating” value ([19]; 250 g ai/ha) was 0, the “Plant response rating, Rice, Transplanted” value ([19]; 16 g ai/ha) was 0 and the “Rice, Water Seeded plant response rating” value ([20]; 32 g ai/ha) was 0. The “Rice, Water Seeded plant response rating” value ([20]; 64 g ai/ha) was 0, the “Rice, Water Seeded plant response rating” value ([20]; 125 g ai/ha) was 0 and the “Rice, Water Seeded plant response rating” value ([20]; 250 g ai/ha) was 0. The “Plant response rating, Rice, Water Seeded” value ([20]; 16 g ai/ha) was 0.
